Series [1] in a line: sulfoxide formation in lipid solution. In kind it is physicochemical. As to conditions: formulated in lipid solution, in the absence of antioxidant; compared with salt form, e.g. ABT-263 bis-HCl.
Series [2] relates to small-cell lung cancer (SCLC) and lymphoid malignancies. To be noted: against SCLC and lymphoid malignancies; cited from earlier work.
A short description of series [3]: dissolution in a lipid carrier when preparing a liquid formulation. Format: physicochemical. As to conditions: solution in a lipid carrier; compared with amorphous form.

`CC1(C)CCC(c2ccc(Cl)cc2)=C(CN2CCN(c3ccc(C(=O)NS(=O)(=O)c4ccc(N[C@H](CCN5CCOCC5)CSc5ccccc5)c(S(=O)(=O)C(F)(F)F)c4)cc3)CC2)C1` [ABT-263 free base, N-(4-(4-((2-(4-chlorophenyl)-5,5-dimethyl-1-cyclohex-1-en-1-yl)methyl)piperazin-1-yl)benzoyl)-4-(((1R)-3-(morpholin-4-yl)-1-((phenylsulfanyl)methyl)propyl)amino)-3-((trifluoromethyl)sulfonyl)benzenesulfonamide]: the “susceptibility to sulfoxide formation” value in series [1] was “less susceptible to sulfoxide formation than ABT-263 in salt form”.
As for `CN(C)CC[C@H](CSc1ccccc1)Nc1ccc(S(=O)(=O)NC(=O)c2ccc(N3CCN(Cc4ccccc4-c4ccc(Cl)cc4)CC3)cc2)cc1[N+](=O)[O-]` [ABT-737, N-(4-(4-((4′-chloro-(1,1′-biphenyl)-2-yl)methyl)piperazin-1-yl)benzoyl)-4-(((1R)-3-(dimethylamino)-1-((phenylsulfanyl)methyl)propyl)amino)-3-nitrobenzene-sulfonamide], the single-agent activity result in series [2] is “single-agent activity”.
For `CC1(C)CCC(c2ccc(Cl)cc2)=C(CN2CCN(c3ccc(C(=O)NS(=O)(=O)c4ccc(N[C@H](CCN5CCOCC5)CSc5ccccc5)c(S(=O)(=O)C(F)(F)F)c4)cc3)CC2)C1` [crystalline ABT-263, N-(4-(4-((2-(4-chlorophenyl)-5,5-dimethyl-1-cyclohex-1-en-1-yl)methyl)piperazin-1-yl)benzoyl)-4-(((1R)-3-(morpholin-4-yl)-1-((phenylsulfanyl)methyl)propyl)amino)-3-((trifluoromethyl)sulfonyl)benzenesulfonamide], the dissolution behaviour result in series [3] is “dissolves faster and has less tendency to form a gel during dissolution”.
